Test results published in patent publication US20260193293A1, “PEPTIDES CAPABLE OF INHIBITING PROTEIN-PROTEIN INTERACTIONS AT GABAB1A SUBUNIT AND USES THEREOF” (UNIVERSITY OF COPENHAGEN, priority 2022, published 2026).
Like-named read-outs stand apart in the source and are kept apart here. Non-standard residues stand in square brackets, D forms with d. Residues, ends and D or L forms follow the SMILES beside them. 2Nal = N[C@@H](Cc1ccc2ccccc2c1)C(=O)O

Columns and labels:
[1] = target: Sushi domains (SD1/2) protein; test: Fluorescence polarization (FP) competition assay with AJAP-1probe, calculated Ki; assay type: binding
How it was run: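 Ki values were derived from IC50s (sigmoidal fits, ≥ triplicate), with probe Kd obtained by saturation titration of SD1/2. Peptides displaced a 25 nM TAMRA-labelled probe; polarization read at 530/580 nm in 1% BSA-containing PBS, pH 7.4, room temperature.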

[2] = system: HeLa cell line stably expressing HaloTag-GFP fusion protein; test: Chloroalkane penetration assay (CAPA); assay type: in vitro ADME; conditions: cell membrane permeability, CA-tagged peptides, mean ± SEM, n ≥ 3
Protocol: The HeLa cell line used for CAPA assay was generated by Chenoweth and co-workers and provided by Kritzer and co-workers. The cells stably express a HaloTag-GFP fusion protein anchored through a mitochondria targeting peptide exposed to the cytosol. For CAPA, Hela cells were seeded using DMEM supplemented with FBS in a 96-well plate one day before the experiment at a density of 4×10^4 cells/well. Just before the assay, the growth media was aspirated off and replaced with Opti-MEM assay media (100 μL/well). DMSO stocks of peptides (10 mM) were diluted in Opti-MEM to prepare serial dilutions of peptides in a separate 96-well PCR plate ensuring the final concentration of DMSO was kept consistent and below 1%. Subsequently, 25 μL of peptide solution was added into each well and the plate was incubated for 4 h at 37° C. with 5% CO2. After aspirating the assay media off, cells were washed with fresh Opti-MEM (80 μL/well) for 15 min at rt. Following removal of the washing media, cells were incubated with 5 μM CA-TAMRA in Opti-MEM (50 μL/well) for 15 min. Non CATAMRA control wells were incubated with Opti-MEM alone (50 μL/well). […] After aspiration, cells were trypsinized using clear Trypsin (20 μL/well, 10 min at 37° C.), resuspended in PBS containing 2% FBS ([…]), and analyzed using a benchtop flow cytometer (Guava EasyCyte, EMD Millipore).

GB1a subunit = target: T1, GB1a subunit (Mus musculus, UniProt Q9WV18); test: Pull-down from mouse brain membrane fraction, immunoblotting; assay type: binding; conditions: immobilized peptides, whole-brain lysate
T1 construct: using the homogenized membrane fraction of wild type mouse brains; from tissue; host or cells: adult mouse brain, solubilized membrane-enriched fraction
T1 sequence (Q9WV18 20-960): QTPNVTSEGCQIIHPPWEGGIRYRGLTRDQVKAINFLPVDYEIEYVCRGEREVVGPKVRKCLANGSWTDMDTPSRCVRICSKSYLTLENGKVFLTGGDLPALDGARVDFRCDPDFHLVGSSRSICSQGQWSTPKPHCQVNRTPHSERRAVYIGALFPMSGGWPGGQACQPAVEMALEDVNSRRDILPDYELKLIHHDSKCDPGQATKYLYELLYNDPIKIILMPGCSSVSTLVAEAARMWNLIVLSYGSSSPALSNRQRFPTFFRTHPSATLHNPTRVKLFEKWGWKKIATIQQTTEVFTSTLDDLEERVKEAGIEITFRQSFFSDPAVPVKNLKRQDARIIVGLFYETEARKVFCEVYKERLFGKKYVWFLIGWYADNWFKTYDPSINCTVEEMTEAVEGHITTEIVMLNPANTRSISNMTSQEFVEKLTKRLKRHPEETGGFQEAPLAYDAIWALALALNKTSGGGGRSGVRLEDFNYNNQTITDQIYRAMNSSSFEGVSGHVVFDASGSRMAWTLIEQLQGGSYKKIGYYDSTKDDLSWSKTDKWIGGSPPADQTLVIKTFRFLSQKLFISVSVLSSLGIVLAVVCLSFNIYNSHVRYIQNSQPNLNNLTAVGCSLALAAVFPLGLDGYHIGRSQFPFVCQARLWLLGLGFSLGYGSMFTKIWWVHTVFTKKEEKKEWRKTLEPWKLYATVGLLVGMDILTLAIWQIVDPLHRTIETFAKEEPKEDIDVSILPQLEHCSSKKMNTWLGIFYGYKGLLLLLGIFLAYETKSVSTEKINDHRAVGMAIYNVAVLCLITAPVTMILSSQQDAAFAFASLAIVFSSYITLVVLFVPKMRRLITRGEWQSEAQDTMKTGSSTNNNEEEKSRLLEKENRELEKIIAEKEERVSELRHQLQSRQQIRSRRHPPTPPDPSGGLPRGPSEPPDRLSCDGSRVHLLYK
Protocol: Covalent immobilization of peptides. Peptides AJAP-1WT, 17 and 20 comprising a C-terminal Cys and a PEG2 linker, were loaded covalently to Dynabeads M-270 Epoxy beads (Thermo Fischer Scientific) according to the protocol of the manufacturer. 25 μL DMSO stocks of peptides (10 mM) were diluted 15 times into 350 μL coupling buffer (100 mM PBS buffer containing 2 M […] and 10 mM TCEP, PH=7.4) and agitated overnight at 37° C. with Dynabeads M-270 Epoxy beads (5 mg, ~3.3×10^8 beads), which had been washed and equilibrated with coupling buffer before. After removing excess peptides, the Dynabeads M-270 Epoxy beads were washed three times and equilibrated with 100 mM PBS buffer, pH=7.4 and stored at 4° C.
Preparation of whole-brain lysates. Dissected adult mouse brains were placed in ice-cold homogenization buffer (320 mM sucrose, 4 mM HEPES, PH 7.5, 1 mM EDTA, 1 mM EGTA, supplemented with complete EDTA-free protease inhibitor mixture (Roche), 1 mL per 100 mg of brain) and homogenized with a glass-Teflon homogenizer (40 passes) on ice. The homogenized material was cleared by centrifugation at 500×g (4° C., 15 min). […]

GB1a/2 receptors = target: T2, GB1a/2 receptors (Homo sapiens, UniProt Q9UBS5); test: SRE-Luciferase accumulation assay; assay type: cell-based; conditions: in the absence of AJAP-1
T2 construct: Flag; expressed in transfected cells; host or cells: HEK293T cells stably expressing chimeric Gαq/i
T2 sequence (Q9UBS5 15-961 limits assumed): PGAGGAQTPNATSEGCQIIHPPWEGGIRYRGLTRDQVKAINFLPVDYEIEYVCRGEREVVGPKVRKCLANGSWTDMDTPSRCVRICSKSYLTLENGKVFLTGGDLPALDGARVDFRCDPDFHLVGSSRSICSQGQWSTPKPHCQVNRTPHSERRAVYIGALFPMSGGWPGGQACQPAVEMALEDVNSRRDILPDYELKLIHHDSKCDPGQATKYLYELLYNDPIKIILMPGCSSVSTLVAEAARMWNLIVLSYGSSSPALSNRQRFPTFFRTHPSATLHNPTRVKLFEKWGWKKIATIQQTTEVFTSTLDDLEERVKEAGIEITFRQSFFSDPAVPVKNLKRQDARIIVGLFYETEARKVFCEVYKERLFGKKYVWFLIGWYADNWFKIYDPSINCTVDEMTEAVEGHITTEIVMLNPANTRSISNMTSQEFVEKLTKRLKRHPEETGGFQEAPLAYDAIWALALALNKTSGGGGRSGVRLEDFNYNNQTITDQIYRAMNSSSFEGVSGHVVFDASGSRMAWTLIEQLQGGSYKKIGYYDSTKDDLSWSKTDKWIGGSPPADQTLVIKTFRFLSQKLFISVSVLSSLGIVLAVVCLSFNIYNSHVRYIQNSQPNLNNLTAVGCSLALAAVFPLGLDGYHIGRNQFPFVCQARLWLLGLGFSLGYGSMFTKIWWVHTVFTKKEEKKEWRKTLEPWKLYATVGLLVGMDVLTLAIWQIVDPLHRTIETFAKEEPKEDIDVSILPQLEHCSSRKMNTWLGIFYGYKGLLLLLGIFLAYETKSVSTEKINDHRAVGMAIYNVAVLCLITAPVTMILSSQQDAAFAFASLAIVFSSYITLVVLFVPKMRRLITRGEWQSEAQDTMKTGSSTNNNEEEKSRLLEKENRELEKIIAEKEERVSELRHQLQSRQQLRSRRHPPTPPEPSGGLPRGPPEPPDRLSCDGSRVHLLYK
T2 sequence (O75899 42-941 partner): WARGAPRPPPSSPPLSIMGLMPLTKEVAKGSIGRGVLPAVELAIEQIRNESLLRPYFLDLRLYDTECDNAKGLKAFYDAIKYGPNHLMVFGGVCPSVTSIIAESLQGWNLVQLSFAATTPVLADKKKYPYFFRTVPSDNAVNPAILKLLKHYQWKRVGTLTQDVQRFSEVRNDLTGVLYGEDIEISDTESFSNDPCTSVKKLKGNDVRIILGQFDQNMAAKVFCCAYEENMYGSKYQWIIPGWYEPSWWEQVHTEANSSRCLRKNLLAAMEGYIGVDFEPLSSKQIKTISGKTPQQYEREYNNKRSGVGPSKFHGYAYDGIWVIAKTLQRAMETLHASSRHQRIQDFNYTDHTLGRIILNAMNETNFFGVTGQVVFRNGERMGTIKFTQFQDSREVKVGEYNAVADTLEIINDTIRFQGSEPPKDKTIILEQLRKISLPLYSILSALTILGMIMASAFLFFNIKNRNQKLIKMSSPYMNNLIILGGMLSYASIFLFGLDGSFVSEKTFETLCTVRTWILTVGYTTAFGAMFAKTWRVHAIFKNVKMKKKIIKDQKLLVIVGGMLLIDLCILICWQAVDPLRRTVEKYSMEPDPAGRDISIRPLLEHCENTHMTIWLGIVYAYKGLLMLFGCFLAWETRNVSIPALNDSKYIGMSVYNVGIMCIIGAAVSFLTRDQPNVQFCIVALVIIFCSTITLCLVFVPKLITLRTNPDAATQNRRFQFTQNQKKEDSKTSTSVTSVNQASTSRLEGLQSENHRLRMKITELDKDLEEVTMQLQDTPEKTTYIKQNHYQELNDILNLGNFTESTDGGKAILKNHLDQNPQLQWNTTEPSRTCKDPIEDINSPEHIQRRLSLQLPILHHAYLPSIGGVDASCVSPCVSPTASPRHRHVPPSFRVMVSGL
From the text: (§1) To elucidate whether our developed peptides AJAP-1WT, 16 and 20 could interact and disrupt the trans-interaction between AJAP-1 and GB1a/2Rs, we used an established accumulation assay based on coupling GB1a/2Rs to phospholipase C (PLC) via chimeric Gαqi (Conklin et al. 1993). PLC activity is then monitored with a serum responsive element-luciferase (SRE-Luciferase) reporter amplifying the GB1a/2Rs response (Yoo et al. 2017) (FIG. 5).
(§2) HEK293T cells stably expressing Gαq/i were transiently transfected with Flag-GB1a, Flag-GB2 and SRE-FLuc with or without AJAP-1. In order to ensure GB1a/2 binding of AJAP-1 in trans, a pool of HEK293T-Gαq/i cells expressing AJAP-1 was mixed with HEK293-Gαq/i cells expressing Flag-GB1a, Flag-GB2 and SRE-FLuc. Transfected cells were distributed into 96-well microplates (Greiner Bio-One) at a density of 80,000 cells/well. After 24 h, the culture medium was replaced with Opti-MEM™-GlutaMAX™ Peptides were incubated in Opti-MEM™-GlutaMAX™ for 10 minutes. In presence of peptide, GB1a/2 receptors were activated with various concentrations of GABA for 6 h. FLuc activity in lysed cells was measured using the Luciferase® Assay Kit (Promega) and a Spark® microplate reader. Luminescence signals were adjusted by subtracting the luminescence obtained when expressing SRE-FLuc fusion proteins alone.

[3] = target: T3, GB1a/2 receptors in presence of AJAP-1 in trans (Homo sapiens, UniProt Q9UBS5); test: SRE-Luciferase accumulation assay; assay type: cell-based; conditions: 10 μM peptide; for basal activity of GB1a/2Rs: in presence of AJAP-1 in trans
T3 construct: Flag; expressed in transfected cells; host or cells: HEK293T cells stably expressing chimeric Gαq/i
T3 sequence (Q9UBS5 15-961 limits assumed): as the sequence (Q9UBS5 15-961 limits assumed) above
T3 sequence (O75899 42-941 partner): as the sequence (O75899 42-941 partner) above
From the text: as §1, §2

[4] = human, plasma
Protocol: For time-course assay, 360 μL human plasma was pre-warmed up at 37° C. for 15 min and then spiked with 40 μL of tested peptides (1 mM in 1×PBS). […] Subsequently, 100 μL acetonitrile was added into and then samples were incubated overnight at −20° C. After that, all samples were centrifuged at 13,400 rpm for 10 min and the supernatant was filtered and then analyzed by LC-MS and UPLC (Waters). The area under the curve (AUC) was determined and normalized to the value of the first time point. The half-life (T1/2) was obtained by fitting the data to the one-phase decay equation in GraphPad Prism 9 and expressed as the mean of three individual experiments. For end-point assay, 108 μL human plasma was pre-warmed up at 37° C. for 15 min and then spiked with 12 μL of tested peptides (1 mM in 1×PBS).

[5] = CPP tagged peptides overview, SD1/2 binding affinity, mean ± SEM, n ≥ 3, read-out: Ki

Compound: DDDWIDWYDSDDDYGRKKRRQRRR [Peptide 16-Tat]
- Ki [1, 5]: 71 ± 1 nM
- Ki ([1]; Table 14, CPPs tagged peptides, read-out: Ki (nM) mean ± SEM): 70.5 ± 0.3 nM
- CP50 [2]: 19 ± 0.4 µM

Compound: CC[C@H](C)[C@H](NC(=O)[C@H](Cc1ccccc1)NC(=O)[C@H](CCC(=O)O)NC(=O)[C@@H](NC(=O)[C@H](CCC(=O)O)NC(C)=O)[C@@H](C)O)C(=O)N[C@@H](C)C(=O)N[C@@H](Cc1c[nH]c2ccccc12)C(=O)NCC(=O)N1CCC[C@H]1C(=O)N[C@H](C(=O)NCC(=O)N[C@@H](CC(=O)O)C(=O)N[C@@H](CCC(=O)O)C(=O)N[C@@H](CC(=O)O)C(N)=O)[C@@H](C)O [AJAP-1WT, Ac-ETEFIAWGPTGDED-NH2] (Ac-ETEFIAWGPTGDED-NH2)
- Ki ([1]; purified peptides, read-out: Ki): 31 ± 1 nM
- pull-down of native GB1a (GB1a subunit): ability to bind and enrich full-length GB1a subunit
- Emax values of GABA-activated GB1a/2Rs (GB1a/2 receptors): did not affect the Emax values
- basal activity of GB1a/2Rs [3]: elevated basal activity
- half-life [4]: > 48 h

Compound: CC[C@H](C)[C@H](NC(=O)[C@H](Cc1c[nH]c2ccccc12)NC(=O)[C@H](CC(=O)O)NC(=O)[C@H](CC(=O)O)NC(=O)[C@H](CC(=O)O)NC(=O)[C@H](CCC(=O)O)NC(C)=O)C(=O)N[C@@H](CC(=O)O)C(=O)N[C@@H](Cc1c[nH]c2ccccc12)C(=O)N[C@@H](Cc1ccc(O)cc1)C(=O)N[C@@H](CC(=O)O)C(=O)N[C@@H](CO)C(=O)N[C@@H](CC(=O)O)C(=O)N[C@@H](CC(=O)O)C(=O)N[C@@H](CC(=O)O)C(N)=O [Peptide 16] (Ac-EDDDWIDWYDSDDD-NH2)
- Ki [1, 5]: 3.2 ± 0.2 nM
- Ki ([1]; Table 1, affinity maturation, mean ± SEM, n ≥ 3, read-out: Ki): 3.2 ± 0.2 nM
- Ki ([1]; Table 13, peptides for affinity maturation, read-out: Ki (nM) mean ± SEM): 3.2 ± 0.2 nM
- Emax values of GABA-activated GB1a/2Rs (GB1a/2 receptors): did not affect the Emax values
- reduction of negative allosteric modulation effects of AJAP-1 at GB1a/2Rs in trans [3]: to a greater extent than AJAP-1WT peptide
- basal activity of GB1a/2Rs [3]: elevated basal activity
- half-life [4]: > 48 h

Compound: CC[C@H](C)[C@H](NC(=O)[C@H](CC(=O)O)NC(=O)[C@H](CC(=O)O)NC(=O)[C@H](Cc1ccc(O)cc1)NC(=O)[C@H](CC(=O)O)NC(=O)[C@H](CC(=O)O)NC(=O)[C@H](CO)NC(=O)[C@H](CC(=O)O)NC(=O)[C@H](CCC(=O)O)NC(=O)[C@H](Cc1ccc2ccccc2c1)NC(C)=O)C(=O)N[C@@H](CC(=O)O)C(=O)N[C@@H](CC(=O)O)C(=O)N[C@@H](CC(=O)O)C(=O)N[C@@H](Cc1c[nH]c2ccccc12)C(N)=O [Scr-20, reference compound] (Ac-[2Nal]EDSDDYDDIDDDW-NH2)
- Ki ([1]; Table 16, ncAAs incorporated peptides, read-out: Ki (nM) mean ± SEM): 31200 ± 989 nM
- pull-down of native GB1a (GB1a subunit): did not interact with the GB1a subunit
- Emax values of GABA-activated GB1a/2Rs (GB1a/2 receptors): did not affect the Emax values
- basal activity of GB1a/2Rs [3]: significant decreased basal activity
